We go through 15 compounds from patent US20120121574A1, “ANTIMICROBIAL, ANTIVIRAL, ANTICANCER AND IMMUNOMODULATORY PEPTIDES AND USES THEREFORE” (priority 2010, published 2012).

The test system of series [1] is C. albicans SC5314 strain. As to conditions: for pEC50: SC5314, 6 h; for EC50asd/EC50N10K: Table IX. On the procedure: In vitro activity of N10K against C. albicans SC5314 strain. The candidacidal activity of N10K peptide against C. albicans was assessed by a conventional colony forming unit (CFU) assay as previously described (Polonelli et al., 2003; Manfredi et al., 2005). Briefly, cells of C. albicans SC5314 were incubated at 37° C. for 6 hours (hr) in the presence of N10K at the concentration indicated of 20, 12.5 or 6.25 microgram/ml, or in distilled water as control (C). After incubation, cell suspensions were plated on Sabouraud dextrose agar and incubated at 30° C. for 48 hours when CFU were counted (** P<0.01 for N10K treated versus untreated cells, by t test). […]
The alanine-substituted derivatives (asd), defined according to the position held by the alanine-substituted aminoacid, were tested against C. albicans by a conventional colony forming unit (CFU) as previously described (Polonelli et al., 2003). Briefly, cells of C. albicans SC5314 were incubated at 37° C. for 6 hours in the presence of N10K or N10K asd at different scalar concentrations or distilled water as control. After incubation, cell suspensions were plated on Sabouraud dextrose agar and incubated at 30° C. for 48 hours when CFU were counted. Based on several independent replications, the EC50 value of each peptide was calculated by nonlinear regression analysis using Graph Pad Prism 4.01 software, San Diego, Calif., USA. […]
In vitro microbicidal activity of N10K derivative with 2 amino acid substitutions, or 80% sequence identity with native N10K, namely peptide Seq Id. No. 25 was tested against Candida albicans SC5314 as determined by Colony Forming Unit assay.

Series [2] deals with U937 cell line. The series can be described thus: annexine-V/propidium iodide flow cytometry on U937. The settings on record: annexine-V/propidium iodide staining.
Series [3] has as its system C. albicans AIDS68 strain. The series can be described thus: murine model of vaginal candidiasis, fluconazole-resistant strain. The class given is in vivo, mice. As to conditions: peptide 25 micrograms intravaginally 1, 24 and 48 hours after challenge. On the procedure:
(§1) In vivo activity of N10K against vaginal candidiasis caused in mice by the fluconazole-resistant C. albicans AIDS68 strain. The anticandidal therapeutic activity of N10K was evaluated in a murine model of vaginal candidiasis. Groups of 5 mice were injected subcutaneously with 0.02 mg of estradiol benzoate in 100 μl of saline solution, […] and weekly thereafter. Then, mice given intravaginally 10^6 cells of the fluconazole-resistant C. albicans strain AIDS68 in 20 μl of saline solution on day 0 and were sampled for intravaginal CFU. N10K, 25 micrograms, was intravaginally administered in comparison to an irrelevant peptide (SP) as control, 1, 24 and 48 hours after the infectious challenge and sampled for intravaginal CFU at days 1, 2, 5, 7, 14, 21, and 28. The statistical significance was assessed by two-tailed Student's t test. On days 1, 2, 5, 7, 14, and 21, the differences in the CFU vaginal counts between N10K treated, untreated, SP treated and fluconazole treated animals were statistically significant (P<0.05) (Table VI).
as §1, with “T11F” for “N10K”, “T11F,” for “N10K,”, “VIII).” for “VI).”

The subject of series [4] is C. neoformans 6995 strain. The settings on record: 6995 strain, 6 h.
Series [5] relates to peritoneal murine macrophages (PM). As to the kind of experiment: in vitro immunomodulatory activity on murine peritoneal macrophages (PM). The class given is cell-based, mouse. As to conditions: mouse peritoneal macrophages, FIG. 73. On the procedure:
In vitro immunomodulatory activity of MoA VHCDR3 on murine immune cells. FIGS. 47-51 are graphs showing TNF-α and IL-6 production by PM and PMN stimulated with MoA CDRs and mouse MoA VHCDR3 uptake by different cell populations. Cells were cultured in the presence or absence (NS) of human and/or mouse CDRs, lipopolisaccharide (LPS), or negative control peptide (NC) (all 10 micrograms/ml) for 18 hr. Both PM and PMN cell populations were 5×10^6/ml. After incubation, TNF-α and IL-6 levels were evaluated in culture supernatants by specific ELISA assays (* P<0.05 treated vs untreated cells, n=7). In FIG. 51, dendritic cells (DC), PM, PMN, and T cells (all 1×10^6/ml) were incubated for 1 hr in the presence or absence (NS) of biotinylated (b)-MoA VHCDR3 or b-NC (both 10 micrograms/ml). After incubation, permeabilized cells were reacted with FITC-labelled mAb to biotin (b) and analyzed by FACScan flow cytometry. Data are reported as the percentage of positive cells *, P<0.05 (b-VHCDR3 treated vs untreated cells, n=5). Error bars, s.e.m. FIGS. 52A and B show graphs and colored cell staining micrograph of kinetic of VHCDR3 uptake by PM. PM (1×10^6/ml) were incubated for different times with b-VHCDR3 or b-NC (all 10 micrograms/ml). After incubation, permeabilized cells were reacted with FITC-labelled mAb to biotin and analyzed by FACScan flow cytometry. Data are reported as the mean fluorescence intensity (MFI) and percentage of positive cells (FIG. 52A) (* P<0.05 b-VHCDR3-treated vs untreated cells, n=7). Error bars, s.e.m. In selected experiments, cells were incubated for 1 hr as above described, reacted with FITC-labelled mAb to biotin in the presence of Evans' Blue as a counter stain, and subsequently examined under fluorescent light microscopy (FIG. 52B). Note the green fluorescence of b-VHCDR3 treated cells. Original magnification 20×. In FIGS. 53 and 54 is shown the phospho-Akt activation and TNF-α production in PM stimulated with MoA VHCDR3. PM (3×10^6/ml) were stimulated for 1 hr in the presence or absence (NS) of MoA VHCDR3, LPS, an irrelevant control peptide (NC) or a scrambled peptide (SP) (all 10 micrograms/ml). After incubation, cell lysates were subjected to Western blotting. Membranes were incubated with Abs to pAkt and Akt; pAkt was normalized against Akt (FIG. 53)*, P<0.05 (treated vs untreated cells, n=5). […] PM (5×10^6/ml) were stimulated for 18 hr as above described. After incubation, TNF-α level was evaluated in culture supernatants by specific ELISA assays. (FIG. 54)*, P<0.05 (treated vs untreated cells, n=5). In FIGS. 55 and 56 is shown the phospho-IkBα activation and TNF-α gene expression in PM stimulated with MoA VHCDR3. PM (3×10^6/ml) were stimulated for 1 hr in the presence or absence (NS) of wortmannin (4 nM), MoA VHCDR3, LPS or NC (all 10 micrograms/ml). After incubation, cell lysates were subjected to Western blotting. Membranes were incubated with Abs to pIkBα and IkBα; pIkBα was normalized against IkBα. (FIG. 55)*, P<0.05 (treated versus untreated cells, n=5); †, P<0.05 (wortmannin-treated vs wortmannin-untreated cells, n=5). For testing the expression level of TNF-α gene, PM (1×10^6/ml) were cultured for 1, 6 and 18 hr as above described. After incubation, total RNA was isolated and analyzed for mRNA expression with RT-PCR (FIG. 56). Transcript copy numbers were determined by qPCR using cDNA as a template. Copy numbers were normalized against the copy number of the GADPH gene (B). […]

pEC50: −log10 of the molar value. Where a SMILES comes first, the peptide text is derived from it. Where no end group is shown, it is not given here. Bounds are passed on as bounds.

Regarding “NQVSLTCAVK [asd L8A N10K, N Q V S L T C A V K]”, in series [1], the pEC50 is 6.13 and the EC50asd/EC50N10K turned out to be 0.74.

As for `CC(C)C[C@H](NC(=O)[C@H](C)NC(=O)[C@H](CCC(=O)O)NC(=O)[C@@H](N)Cc1c[nH]cn1)C(=O)O` [Peptide H4L, H E A L] (H-HEAL-OH), the “induction of apoptotic/necrotic effects” value in series [2] is given as “exclude the induction of apoptotic/necrotic effects”.

`OC(Cn1cncn1)(Cn1cncn1)c1ccc(F)cc1F` [fluconazole]: the CFU vaginal counts in series [3] (Day 0) was greater than 100; in series [3] (Day 1), greater than 100; in series [3] (Day 2), 93 ± 4.3; in series [3] (Day 5) it was 61 ± 2.5; in series [3] (Day 7), 44 ± 2.9; in series [3] (Day 14), 18.7 ± 3.8. The CFU vaginal counts in series [3] (Day 21) was 11.7 ± 0.7; in series [3] (Day 28), 0.

With “NQVSLACLVK [asd T6A N10K, N Q V S L A C L V K]”, in series [1], the pEC50 was 5.31 and the EC50asd/EC50N10K stood at 4.86.

As for “TCRVDHRGLTF [Peptide T11F, T C R V D H R G L T F]”, the pEC50 was 5.80 in series [1] and 5.57 in series [4]. Further, the “induction of apoptotic/necrotic effects” value in series [2] is given as “exclude the induction of apoptotic/necrotic effects”.

In series [1], “AQVSLTCLVK [asd N1A N10K, A Q V S L T C L V K]” had a negative logarithm of the EC50 (pEC50) of 6.23 and an EC50asd/EC50N10K of 0.58.

As for “G Q Y G A L W F A Y (GQYGALWFAY) [Peptide A5]”, in series [5], the “TNF-α-inducing activity compared with VHCDR3” value was “either unchanged or slightly reduced”.

Take “NQVSATCLVK [asd L5A N10K, N Q V S A T C L V K]”: in series [1], the pEC50 was 6.05 and the EC50asd/EC50N10K is reported as 0.88.

In the case of “N Q V S L T C L V A (NQVSLTCLVA) [asd K10A]”, the “percentual inhibition of C. albicans growth” value in series [1] (at the concentration of 250 micrograms/ml) is on record as “* EC50 was not determined, asd K10A showed a percentual inhibition of C. albicans growth equal to 69.04 at the concentration of 250 micrograms/ml”.

In series [1], “NQASLTCLVK [asd V3A N10K, N Q A S L T C L V K]” gave a pEC50 of 5.23 and an EC50asd/EC50N10K of 5.91.

Regarding “NQVSLTCLAK [asd V9A N10K, N Q V S L T C L A K]”, in series [1], the pEC50 was 5.75 and the EC50asd/EC50N10K is 1.77.

“NQVALTCLVK [asd S4A N10K, N Q V A L T C L V K]”: in series [1], the pEC50 is 5.62 and the EC50asd/EC50N10K was 2.38.

As to “NQVSATCSVK [L5A, L8S N10K, N Q V S A T C S V K]”, the pEC50 in series [1] was 4.36. Also, the Activity entry in series [1] (Table III, in vitro, Fungus) was “cidal”.

In series [1], “NQVSLTALVK [asd C7A N10K, N Q V S L T A L V K]” gave a pEC50 of 4.26 and an EC50asd/EC50N10K of 54.71.

In the case of “G Q A G N L W F A Y (GQAGNLWFAY) [Peptide A3]”, the “TNF-α-inducing activity compared with VHCDR3” value in series [5] is “either unchanged or slightly reduced”.
